In one data set the target is Cytochrome P450 2D6 (Homo sapiens, UniProt P10635). Briefly: Inhibition of CYP2D6. It is filed as ADME.
Data set [1] concerns Human papillomavirus type 16. Briefly: Antiviral activity against Human papillomavirus 16 infected in human W12-20850 cells by hybrid capture method. It counts as functional, organism-based. Conditions: Human papillomavirus 16, W12-20850.
A short description of data set [2]: Cytotoxicity against HFF cells. It counts as cell-based. Conditions: human.
The target of data set [3] is Voltage-gated inwardly rectifying potassium channel KCNH2 (Homo sapiens, UniProt Q12809).
Data set [4] in a line: Clearance in rat at 2 mg/kg, iv. It is filed as ADME, organism-based. Also on record: dose 2 mg/kg, route intravenous. The following applies: in vivo.
A short description of data set [5]: Clearance in dog at 2 mg/kg, iv. It is filed as ADME, organism-based, Canis lupus familiaris. Also on record: dose 2 mg/kg, route intravenous. Conditions: in vivo.
Data set [6] is described as follows: Clearance in monkey at 2 mg/kg, iv. It is filed as ADME, organism-based, Macaca mulatta. On the set-up: dose 2 mg/kg, route intravenous. The following applies: rhesus monkey, in vivo.
A short description of data set [7]: Volume of distribution at steady state in rat at 2 mg/kg, iv. It is filed as ADME, organism-based. Also on record: dose 2 mg/kg, route intravenous. Conditions: in vivo, read-out: Vdss.
Data set [8] can be described thus: Volume of distribution at steady state in dog at 2 mg/kg, iv. It is filed as ADME, organism-based, Canis lupus familiaris. Conditions: in vivo, read-out: Vdss. Also on record: dose 2 mg/kg, route intravenous.
The nature of data set [9]: Volume of distribution at steady state in monkey at 2 mg/kg, iv. On the set-up: dose 2 mg/kg, route intravenous. It is filed as ADME, organism-based, Macaca mulatta. Conditions: rhesus monkey, in vivo, read-out: Vdss.
Data set [10] in a line: Half life in rat at 10 mg/kg. The following applies: in vivo. On the set-up: dose 10 mg/kg. It counts as ADME, organism-based.
Data set [11] can be described thus: Half life in dog at 5 mg/kg. It counts as ADME, organism-based, Canis lupus familiaris. The following applies: in vivo. Also on record: dose 5 mg/kg.
A short description of data set [12]: Half life in monkey at 5 mg/kg. It is filed as ADME, organism-based, Macaca mulatta. Also on record: dose 5 mg/kg. Conditions: rhesus monkey, in vivo.
Data set [13] in a line: Oral bioavailability in rat at 10 mg/kg. It counts as ADME, organism-based. Conditions: in vivo.
The nature of data set [14]: Oral bioavailability in dog at 5 mg/kg. It counts as ADME, organism-based, Canis lupus familiaris. Conditions: in vivo.
Data set [15] can be described thus: Oral bioavailability in monkey at 5 mg/kg. It is filed as ADME, organism-based, Macaca mulatta. Conditions: rhesus monkey, in vivo.
Data set [16] can be described thus: Bioavailability in rat. It counts as ADME, organism-based. Conditions: in vivo.

Chain of Cytochrome P450 2D6 (P10635 whole entry): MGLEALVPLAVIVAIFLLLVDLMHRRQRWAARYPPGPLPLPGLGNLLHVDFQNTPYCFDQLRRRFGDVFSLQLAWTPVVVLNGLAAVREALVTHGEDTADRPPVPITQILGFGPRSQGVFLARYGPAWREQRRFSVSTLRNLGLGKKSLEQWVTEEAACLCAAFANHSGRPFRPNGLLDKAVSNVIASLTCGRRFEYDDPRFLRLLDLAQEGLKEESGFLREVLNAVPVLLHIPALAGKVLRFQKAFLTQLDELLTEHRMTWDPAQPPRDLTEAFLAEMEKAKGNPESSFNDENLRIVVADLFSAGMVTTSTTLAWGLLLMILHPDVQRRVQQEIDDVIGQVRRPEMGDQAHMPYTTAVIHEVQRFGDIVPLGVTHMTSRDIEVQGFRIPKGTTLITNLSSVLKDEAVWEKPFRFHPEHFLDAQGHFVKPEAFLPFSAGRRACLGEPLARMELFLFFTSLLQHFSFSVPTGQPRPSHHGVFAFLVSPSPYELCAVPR
Chain of Voltage-gated inwardly rectifying potassium channel KCNH2 (Q12809 whole entry): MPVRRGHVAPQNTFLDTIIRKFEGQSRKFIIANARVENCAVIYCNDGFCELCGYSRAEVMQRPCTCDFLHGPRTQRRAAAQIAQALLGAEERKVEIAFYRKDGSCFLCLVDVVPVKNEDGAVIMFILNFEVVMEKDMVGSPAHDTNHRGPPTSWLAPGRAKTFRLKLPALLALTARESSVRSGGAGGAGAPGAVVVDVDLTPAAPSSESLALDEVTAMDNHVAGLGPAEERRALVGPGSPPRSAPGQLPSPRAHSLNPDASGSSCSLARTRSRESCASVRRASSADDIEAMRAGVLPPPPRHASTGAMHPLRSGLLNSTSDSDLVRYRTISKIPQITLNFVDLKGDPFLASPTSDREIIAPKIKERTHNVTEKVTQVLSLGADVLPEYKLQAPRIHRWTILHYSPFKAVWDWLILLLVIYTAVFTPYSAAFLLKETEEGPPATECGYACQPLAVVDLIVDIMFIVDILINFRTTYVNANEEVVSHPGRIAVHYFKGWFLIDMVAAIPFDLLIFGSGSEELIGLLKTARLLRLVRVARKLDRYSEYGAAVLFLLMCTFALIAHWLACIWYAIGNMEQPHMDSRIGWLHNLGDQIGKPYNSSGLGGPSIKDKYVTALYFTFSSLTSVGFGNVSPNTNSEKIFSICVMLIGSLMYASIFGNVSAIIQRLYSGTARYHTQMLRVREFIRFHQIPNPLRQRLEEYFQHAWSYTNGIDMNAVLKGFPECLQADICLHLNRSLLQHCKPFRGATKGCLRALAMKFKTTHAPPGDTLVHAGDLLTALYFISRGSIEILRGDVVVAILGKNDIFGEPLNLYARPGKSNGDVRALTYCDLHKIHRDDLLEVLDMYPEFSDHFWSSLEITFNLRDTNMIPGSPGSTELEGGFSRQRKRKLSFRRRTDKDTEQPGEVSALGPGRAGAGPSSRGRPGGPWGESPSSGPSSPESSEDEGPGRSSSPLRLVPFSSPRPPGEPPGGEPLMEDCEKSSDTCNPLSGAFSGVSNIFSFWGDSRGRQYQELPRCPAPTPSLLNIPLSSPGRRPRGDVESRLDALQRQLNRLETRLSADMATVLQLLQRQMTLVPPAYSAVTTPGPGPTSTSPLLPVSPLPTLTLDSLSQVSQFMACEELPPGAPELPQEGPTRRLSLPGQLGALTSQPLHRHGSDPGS

As for `C[C@@H](N[C@@H]1CCCc2c1[nH]c1ccc(Br)cc21)c1ccccc1`, the concentration for half-maximal inhibition (IC50) against Cytochrome P450 2D6 came to 0.16 µM.

As for `O=C(NC1CCCc2c1[nH]c1ccc(Br)cc21)c1ccccc1` (stereo not given), in data set [1], the midpoint of inhibition, the IC50, lay at 0.03 µM. In addition, the CC50 in data set [2] was greater than 20 µM.

In data set [1], `O=C(NC1CCCc2c1[nH]c1ccc(Br)cc21)OCc1ccccc1` (stereo not given) returned a 50% inhibitory concentration (IC50) of 0.045 µM. For the same molecule, the 50% cytotoxic concentration (CC50) in [2] is greater than 20 µM.

`O=C(N[C@@H]1CCCc2c1[nH]c1ccc(Cl)cc21)c1ccccc1` came in with an IC50 in data set [1] of 0.02 µM. The midpoint of cytotoxicity in data set [2], the CC50, lay at 26 µM.

Consider `O=C(N[C@@H]1CCCc2c1[nH]c1ccc(Cl)cc21)c1ccccc1F`, for which the IC50 is 0.008 µM in data set [1], greater than 20 µM at Cytochrome P450 2D6 and greater than 20 µM in [3]. In addition, half-maximal cytotoxicity in [2] (CC50) was put at 24 µM.

On to `O=C(N[C@H]1CCCc2c1[nH]c1ccc(Br)cc21)c1ccccc1`, for which the midpoint of inhibition in data set [1], the IC50, lay at 5.7 µM. This molecule returned a 50% cytotoxic concentration (CC50) in [2] of 52 µM.

Regarding `O=C(N[C@@H]1CCCc2c1[nH]c1ccc(Cl)cc21)c1ccccn1`, the concentration for half-maximal inhibition (IC50) in [1] was determined as 0.005 µM. This molecule also displayed a CC50 in data set [2] of 16 µM. The clearance in [4] is 13.1 mL/min/kg; in [5], 5 mL/min/kg; in data set [6], 1.1 mL/min/kg. Also, the Vd in data set [7] was 1.6 L/kg; in data set [8] it was 1.7 L/kg; in data set [9] it was 0.13 L/kg. Further, the half-life in [10] is 4.1 h; in data set [11], 9.5 h; in data set [12] it was 3.6 h. In addition, the bioavailability turned out to be 56% in data set [13], 35% in [14] and 56% in data set [15].

With `Brc1ccc2[nH]c3c(c2c1)CCCC3Nc1ccccc1` (stereo not given), the midpoint of inhibition in data set [1], the IC50, lay at 0.01 µM. The CC50 in [2] was found to be 50.8 µM. In data set [16], this molecule returned a bioavailability of less than 5%.

Molecule `O=C(NC1CCCc2c1[nH]c1ccc(Br)cc21)C1CCCCC1` (stereo not given) had an IC50 in data set [1] of 0.4 µM. Further, in data set [2], it took 50 µM to reach half-maximal cytotoxicity (CC50).

Take `O=C(Cc1ccccc1)NC1CCCc2c1[nH]c1ccc(Br)cc21` (stereo not given): in data set [1], the IC50 worked out at 0.58 µM. The CC50 in data set [2] is greater than 50 µM.

`CS(=O)(=O)NC1CCCc2c1[nH]c1ccc(Br)cc21` (stereo not given) displayed an IC50 in data set [1] of 2.26 µM. The same molecule displayed a cytotoxic concentration (CC50) in [2] greater than 50 µM.

As for `Cc1ccccc1C(=O)NC1CCCc2c1[nH]c1ccc(Br)cc21` (stereo not given), the 50% inhibitory concentration (IC50) in data set [1] is 0.5 µM. Further, the half-maximal cytotoxic concentration (CC50) in [2] amounted to 40 µM.

`O=C(N[C@H]1CCCc2c1[nH]c1ccc(Cl)cc21)c1ccccc1`: it took 11.3 µM to reach half-maximal inhibition in [1] (IC50). This molecule yielded a CC50 in [2] of 55 µM.

As to `O=C(N[C@@H]1CCCc2c1[nH]c1ccc(Br)cc21)c1ccccc1`, 0.008 µM corresponded to half-maximal inhibition in [1] (IC50). In addition, in data set [2], the CC50 was found to be 39 µM.

Molecule `Brc1ccc2[nH]c3c(c2c1)CCCC3Nc1ccccn1` (stereo not given) yielded an IC50 in [1] of 0.04 µM. Further, the CC50 in data set [2] was 20.7 µM.

`O=C(/C=C/c1ccccc1)NC1CCCc2c1[nH]c1ccc(Br)cc21` (stereo not given) had an IC50 in data set [1] of 0.32 µM. Also, the CC50 in [2] is greater than 40 µM.

For `Brc1ccc2[nH]c3c(c2c1)CCCC3Nc1ncccn1` (stereo not given), half-maximal inhibition in [1] (IC50) required 0.09 µM. In data set [2], half-maximal cytotoxicity (CC50) was put at 89.5 µM.

`O=C(CCc1ccccc1)NC1CCCc2c1[nH]c1ccc(Br)cc21` (stereo not given) gave an IC50 in data set [1] of 1.2 µM. This molecule also registered a CC50 in data set [2] greater than 50 µM.

As for `CC(=O)NC1CCCc2c1[nH]c1ccc(Br)cc21` (stereo not given), the 50% inhibitory concentration (IC50) in data set [1] came out at 12.9 µM. In data set [2], this molecule returned a CC50 greater than 50 µM.

Molecule `O=C(N[C@H]1CCCc2c1[nH]c1ccc(Cl)cc21)c1ccccc1F` returned an IC50 in data set [1] of 2.1 µM. Further, half-maximal cytotoxicity in [2] (CC50) was put at 36 µM.

As for `Cc1ccc(S(=O)(=O)NC2CCCc3c2[nH]c2ccc(Br)cc32)cc1` (stereo not given), the 50% inhibitory concentration (IC50) in [1] was 0.024 µM. The molecule also came in with a CC50 in data set [2] greater than 20 µM.

In turn, `O=C(N[C@H]1CCCc2c1[nH]c1ccc(Cl)cc21)c1ccccn1` showed a half-inhibitory concentration (IC50) in data set [1] of 9 µM. The midpoint of cytotoxicity in [2], the CC50, lay at 61 µM.

`Cc1cccc(C(=O)NC2CCCc3c2[nH]c2ccc(Br)cc32)c1` (racemic) gave an IC50 in [1] of 0.024 µM. The same molecule yielded a half-maximal cytotoxic concentration (CC50) in data set [2] of 41 µM.

Consider `COc1cccc(C(=O)NC2CCCc3c2[nH]c2ccc(Br)cc32)c1` (racemic), for which the half-maximal inhibitory concentration (IC50) in data set [1] amounted to 0.021 µM. Besides, it took 26 µM to reach half-maximal cytotoxicity in data set [2] (CC50).

Regarding `O=C(NC1CCCc2c1[nH]c1ccc(Br)cc21)c1ccccn1` (racemic), the IC50 in data set [1] came to 0.005 µM. Besides, in data set [2], the CC50 was 72 µM.

Consider `COc1ccc(C(=O)NC2CCCc3c2[nH]c2ccc(Br)cc32)cc1` (racemic), for which half-maximal inhibition in data set [1] (IC50) required 0.017 µM. The molecule also gave a cytotoxic concentration (CC50) in [2] of 88 µM.

In the case of `O=C(NC1CCCc2c1[nH]c1ccc(Br)cc21)c1cccnc1` (racemic), in data set [1], the IC50 was found to be 0.19 µM. Further, the CC50 in data set [2] was 100 µM.

In the case of `Cc1ccc(C(=O)NC2CCCc3c2[nH]c2ccc(Br)cc32)cc1` (racemic), the half-inhibitory concentration (IC50) in data set [1] stood at 0.01 µM. The midpoint of cytotoxicity in data set [2], the CC50, lay at 87 µM.

For the molecule `O=C(NC1CCCc2c1[nH]c1ccc(Br)cc21)c1ccc(F)cc1` (racemic), in [1], half-maximal inhibition (IC50) was put at 0.044 µM. This molecule yielded a CC50 in [2] of 47 µM.

For the molecule `O=C(NC1CCCc2c1[nH]c1ccc(Br)cc21)c1ccncc1` (racemic), in data set [1], half-maximal inhibition (IC50) was put at 0.2 µM. Moreover, half-maximal cytotoxicity in data set [2] (CC50) was put at 100 µM.

Molecule `O=C(NC1CCCc2c1[nH]c1ccc(Br)cc21)c1cccc(F)c1` (racemic) displayed a half-maximal inhibitory concentration (IC50) in data set [1] of 0.018 µM. In addition, it took 65 µM to reach half-maximal cytotoxicity in [2] (CC50).

In data set [1], `COc1ccccc1C(=O)NC1CCCc2c1[nH]c1ccc(Br)cc21` (racemic) yielded an IC50 of 21 µM. For the same molecule, in data set [2], the cytotoxic concentration (CC50) was 100 µM.

On to `O=C(NC1CCCc2c1[nH]c1ccc(Br)cc21)c1ccccc1F` (racemic), for which the IC50 in data set [1] turned out to be 0.008 µM. For the same molecule, it took 49 µM to reach half-maximal cytotoxicity in [2] (CC50).

In general, IC50 refers to the concentration that inhibits the measured activity by half. A word on the CC50: it is the concentration that lowers cell viability or growth by half. The term clearance denotes the rate of elimination divided by the concentration. As a reminder, the half-life is the time needed for the level to fall by half in the phase considered. What is called bioavailability is the share of a dose that reaches the circulation, judged against a reference dose that is usually intravenous.

Source of the values: ChEMBL document CHEMBL1152400, “Tetrahydrocarbazole amides with potent activity against human papillomaviruses” (Bioorg Med Chem Lett, 2009).
